According to ChEMBL document CHEMBL1201862, “PubChem BioAssay data set” (2004):
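96-well plates; 48 h exposure; 5 concentrations. Endpoints by linear interpolation between flanking doses. Not reached: highest tested concentration assigned. GI50 = concentration required for 50% inhibition of growth.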 Calls of active or inactive are those of the source. Cut-off read from the data, not from the text of the source: active = GI50 up to about 1.1 µM and inactive = higher.

What was measured:
Assay in all cases: NCI-60 cell line screen, 48 h
A498 = test system: A498
EKVX = test system: EKVX
HCC 2998 = test system: HCC 2998
IGROV-1 = test system: IGROV-1
KM12 = test system: KM12
MCF7 = test system: MCF7
MOLT-4 = test system: MOLT-4
NCI-H23 = test system: NCI-H23
NCI-H460 = test system: NCI-H460
OVCAR-8 = test system: OVCAR-8
RPMI-8226 = test system: RPMI-8226
RXF 393 = test system: RXF 393
SF-295 = test system: SF-295
SK-MEL-2 = test system: SK-MEL-2
SR = test system: SR
TK-10 = test system: TK-10
UACC-62 = test system: UACC-62
SN12C = test system: SN12C
BT-549 = test system: BT-549

Measured: GI50

CC(C)(C)COC1C2(OCCO2)C2CCC1(C)C2(C)C (stereo unspecified)
inactive: A498 > 100 µM | EKVX 33.7 µM | HCC 2998 37.5 µM | IGROV-1 82.8 µM | KM12 20 µM | MCF7 19.1 µM | MOLT-4 21.4 µM | NCI-H23 52.5 µM | NCI-H460 33.7 µM | OVCAR-8 23.1 µM | RPMI-8226 19.9 µM | RXF 393 19.6 µM | SF-295 18.7 µM | SK-MEL-2 23.4 µM | SR 21.6 µM | TK-10 > 100 µM | UACC-62 54.7 µM

C[N+](C)(C)CC(=O)N/N=C(/Cc1nc2c3c(ccc2nc1O)C(=O)c1ccccc1C3=O)C(=O)Nc1ccc(Cl)c(Cl)c1
inactive: A498 33.7 µM | EKVX 13.1 µM | HCC 2998 76.9 µM | IGROV-1 12.7 µM | KM12 19.7 µM | MOLT-4 19.9 µM | NCI-H23 44.6 µM | NCI-H460 40.7 µM | OVCAR-8 50.5 µM | RPMI-8226 17.4 µM | RXF 393 23.2 µM | SF-295 79.4 µM | SK-MEL-2 91.2 µM | SN12C 86.9 µM | SR 16 µM | TK-10 39.1 µM | UACC-62 41.6 µM

Cc1cc(C)nc(NS(=O)(=O)c2ccc(Nc3c4ccc(Cl)cc4nc4c(C(=O)Nc5ccc(S(=O)(=O)N=C(N)N)cc5)cccc34)cc2)n1
inactive: A498 > 100 µM | EKVX > 100 µM | HCC 2998 > 100 µM | KM12 > 100 µM | MOLT-4 29 µM | NCI-H23 > 100 µM | NCI-H460 > 100 µM | OVCAR-8 > 100 µM | RPMI-8226 45.4 µM | RXF 393 29.4 µM | SF-295 > 100 µM | SN12C > 100 µM | TK-10 98.6 µM | UACC-62 70.8 µM

Cc1nc(-c2nc(C)c(C(=O)/C=C/c3ccc([N+](=O)[O-])cc3)s2)sc1C(=O)/C=C/c1ccc([N+](=O)[O-])cc1
inactive: A498 > 100 µM | EKVX > 100 µM | HCC 2998 > 100 µM | IGROV-1 > 100 µM | KM12 > 100 µM | MOLT-4 > 100 µM | NCI-H23 > 100 µM | NCI-H460 > 100 µM | OVCAR-8 > 100 µM | RPMI-8226 > 100 µM | RXF 393 > 100 µM | SF-295 > 100 µM | SK-MEL-2 > 100 µM | SN12C > 100 µM | TK-10 > 100 µM | UACC-62 > 100 µM

C/C(=N\NC(=N)N)C(CN1CCCCC1)C(c1ccccc1)c1c(O)c2ccccc2oc1=O (stereo unspecified)
inactive: A498 > 100 µM | EKVX > 100 µM | HCC 2998 > 100 µM | IGROV-1 > 100 µM | NCI-H23 > 100 µM | OVCAR-8 > 100 µM | RPMI-8226 > 100 µM | RXF 393 > 100 µM | SF-295 > 100 µM | SK-MEL-2 > 100 µM | SN12C > 100 µM | SR > 100 µM | TK-10 > 100 µM | UACC-62 > 100 µM

CCOP(=O)(OCC)C(C)(CC)N/C(=N\C1=NC(C(F)(F)F)(C(F)(F)F)N=C(C(F)(F)F)O1)NC(NC(C)=O)(C(F)(F)F)C(F)(F)F (stereo unspecified)
inactive: A498 38.9 µM | EKVX 30.8 µM | HCC 2998 34 µM | IGROV-1 51.2 µM | KM12 35 µM | MCF7 21.9 µM | MOLT-4 13.2 µM | NCI-H23 18.2 µM | NCI-H460 35.3 µM | OVCAR-8 36.6 µM | RPMI-8226 24.2 µM | RXF 393 32.6 µM | SF-295 18 µM | SK-MEL-2 25.5 µM | SN12C 34.1 µM | TK-10 46.9 µM | UACC-62 35.3 µM

C[N+](C)(C)CC1CCC/C1=N\OC(=O)c1ccccc1 (stereo unspecified)
inactive: A498 > 100 µM | EKVX > 100 µM | IGROV-1 > 100 µM | KM12 > 100 µM | MOLT-4 > 100 µM | NCI-H23 > 100 µM | OVCAR-8 > 100 µM | RPMI-8226 > 100 µM | RXF 393 > 100 µM | SF-295 > 100 µM | SK-MEL-2 > 100 µM | SN12C > 100 µM | SR > 100 µM | UACC-62 > 100 µM

O=C1NC(Cc2ccc(O)cc2)C(=O)NC1Cc1ccc(O)cc1 (stereo unspecified)
inactive: A498 > 100 µM | EKVX > 100 µM | IGROV-1 > 100 µM | KM12 > 100 µM | MCF7 > 100 µM | MOLT-4 > 100 µM | NCI-H23 > 100 µM | NCI-H460 > 100 µM | OVCAR-8 > 100 µM | RPMI-8226 > 100 µM | RXF 393 > 100 µM | SF-295 > 100 µM | SK-MEL-2 > 100 µM | SN12C 27.1 µM | SR > 100 µM | TK-10 > 100 µM | UACC-62 > 100 µM

COC(=O)C(=O)C(C(=O)C(=O)Nc1ccc(C)cc1)c1nc2ccc(C(=O)c3ccccc3)cc2nc1O (stereo unspecified)
inactive: A498 > 100 µM | BT-549 > 100 µM | EKVX > 100 µM | HCC 2998 92.3 µM | IGROV-1 > 100 µM | KM12 30.4 µM | NCI-H23 > 100 µM | NCI-H460 70.8 µM | OVCAR-8 42.2 µM | RPMI-8226 > 100 µM | RXF 393 55 µM | SF-295 65 µM | SK-MEL-2 > 100 µM | SN12C > 100 µM | TK-10 > 100 µM | UACC-62 > 100 µM

COc1ccc(CC2(Cc3ccc(OC)cc3)CCOC2=O)cc1
inactive: A498 > 100 µM | EKVX 44.2 µM | IGROV-1 > 100 µM | KM12 > 100 µM | MOLT-4 > 100 µM | NCI-H23 > 100 µM | NCI-H460 > 100 µM | OVCAR-8 > 100 µM | RPMI-8226 > 100 µM | SF-295 60.1 µM | SK-MEL-2 94.8 µM | SN12C > 100 µM | SR > 100 µM | TK-10 > 100 µM | UACC-62 > 100 µM

CCOC(=O)NC(=O)c1cn(CCN2CCN(c3ncnc4[nH]cnc34)CC2)c(=O)[nH]c1=O
inactive: A498 > 100 µM | EKVX > 100 µM | HCC 2998 > 100 µM | IGROV-1 > 100 µM | KM12 > 100 µM | MOLT-4 > 100 µM | NCI-H23 > 100 µM | NCI-H460 > 100 µM | OVCAR-8 > 100 µM | RPMI-8226 > 100 µM | RXF 393 > 100 µM | SF-295 > 100 µM | SK-MEL-2 > 100 µM | SN12C > 100 µM | SR > 100 µM | TK-10 > 100 µM | UACC-62 > 100 µM

CC1CCC2C(C)C(=O)OC2C2(C)C(=O)C=CC12 (stereo unspecified)
inactive: EKVX > 10 µM | HCC 2998 > 10 µM | IGROV-1 > 10 µM | KM12 > 10 µM | MCF7 8.79 µM | MOLT-4 6.59 µM | NCI-H23 > 10 µM | NCI-H460 > 10 µM | OVCAR-8 > 10 µM | RPMI-8226 8.47 µM | RXF 393 > 10 µM | SF-295 > 10 µM | SK-MEL-2 9.4 µM | SN12C > 10 µM | SR 3.61 µM | TK-10 > 10 µM | UACC-62 > 10 µM
